Assay results published in patent US10760052B2, “Method of inhibiting tau phosphorylation” (priority 2012, dated 2020).
Like-named read-outs stand apart in the source and are kept apart here.

Molecular target: T1, mu opiate receptor (MOR) (Rattus norvegicus, UniProt P33535)
T1 construct: from tissue; host or cells: striatum (membrane preparation)
Format: biochemical
Settings: for MOR agonist activity ([35S]GTPγS binding), compound as agonist: preliminary study, average of two runs; for Concentration of FLNA-Binding Compound as Agonist 0.1 μM / Concentration of FLNA-Binding Compound as Agonist 1 μM / Concentration of FLNA-Binding Compound as Agonist 1 μM + BFNA: [35S]GTPγS binding to Gαo in striatal membranes; for Concentration of FLNA-Binding Compound as Agonist 0.1 μM: compound 0.1 μM; for Concentration of FLNA-Binding Compound as Agonist 1 μM: compound 1 μM; for Concentration of FLNA-Binding Compound as Agonist 1 μM + BFNA: compound 1 μM plus 1 μM β-funaltrexamine (MOR antagonist)

[1] = 0.1 μM compound, striatal membranes, Series C-2
[2] = 1 μM compound + 1 μM β-FNA (selective MOR antagonist), Series C-2
[3] = 1 μM compound, striatal membranes, Series C-2

T1 sequence (P33535 whole entry): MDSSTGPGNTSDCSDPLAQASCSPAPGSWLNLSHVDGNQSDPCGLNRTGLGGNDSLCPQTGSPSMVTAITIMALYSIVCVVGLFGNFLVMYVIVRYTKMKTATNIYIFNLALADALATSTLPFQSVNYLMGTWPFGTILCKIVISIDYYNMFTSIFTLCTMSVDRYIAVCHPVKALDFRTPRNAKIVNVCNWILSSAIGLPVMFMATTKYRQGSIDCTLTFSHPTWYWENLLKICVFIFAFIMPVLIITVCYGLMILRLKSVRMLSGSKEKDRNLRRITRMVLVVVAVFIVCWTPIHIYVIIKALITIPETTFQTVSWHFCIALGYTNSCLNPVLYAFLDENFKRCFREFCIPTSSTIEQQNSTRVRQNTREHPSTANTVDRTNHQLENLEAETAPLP

Row | SMILES | % DAMGO (0.1 μM) [%] | % DAMGO (1 μM) [%] | % DAMGO + BFNA [%] | [35S]GTPγS binding, FLNA-Binding Compound as Agonist at 0.1 μM [%] | [35S]GTPγS binding, FLNA-Binding Compound as Agonist at 1 μM [%] | [35S]GTPγS binding, FLNA-Binding Compound as Agonist at 1 μM + BFNA [%] | [35S]GTPγS binding, FLNA-Binding Compound as Agonist at 0.1 μM [1] [%] | [35S]GTPγS binding, FLNA-Binding Compound as Agonist at 1 μM + BFNA [2] [%] | [35S]GTPγS binding, FLNA-Binding Compound as Agonist at 1 μM [3] [%] | MOR agonist activity ([35S]GTPγS binding), compound as agonist (0.1 μM) [%] | MOR agonist activity ([35S]GTPγS binding), compound as agonist (1 μM + βNFA) [%] | MOR agonist activity ([35S]GTPγS binding), compound as agonist (1 μM) [%] | Concentration of FLNA-Binding Compound as Agonist 0.1 μM [%] | Concentration of FLNA-Binding Compound as Agonist 1 μM [%] | Concentration of FLNA-Binding Compound as Agonist 1 μM + BFNA [%]
1 | O=C1CNC2(CCNCC2)N1Cc1ccccc1 [Compound C0114M] | 77.6 | 71.4 | 91.3 | 114.0 | 144.3 | 35.9 | – | – | – | – | – | – | – | – | –
2 | O=C1CN(Cc2ccccc2)C2(CCNCC2)N1 [Compound C0115M] | 105.7 | 102.0 | 249.3 | 177.2 | 226.8 | 118.4 | – | – | – | – | – | – | – | – | –
3 | CS(=O)(=O)c1ccc(S(=O)(=O)N2CCOC23CCNCC3)cc1 [Compound C0116M] | 136.6 | 122.0 | 313.4 | 258.4 | 302.8 | 152.0 | – | – | – | – | – | – | – | – | –
4 | CC(=O)c1ccc(S(=O)(=O)N2CC(CN(C)C)OC23CCNCC3)cc1 (stereo not drawn) [Compound C0118M] | 87.8 | 105.4 | 163.3 | 166.2 | 261.5 | 79.2 | – | – | – | – | – | – | – | – | –
5 | CC(=O)c1ccc(S(=O)(=O)N2C(Cc3c[nH]cn3)C(=O)NC23CCNCC3)cc1 (stereo not drawn) [Compound C0119M] | 71.9 | 83.0 | 89.3 | 105.7 | 167.8 | 35.1 | – | – | – | – | – | – | – | – | –
6 | O=C1CN(Cc2ccccc2)C2(CCN(CC3CC3)CC2)N1 [Compound C0125M] | 89.1 | 78.6 | 329.3 | – | – | – | 168.6 | 159.7 | 195.2 | – | – | – | – | – | –
7 | CS(=O)(=O)c1ccc(S(=O)(=O)N2CCOC23CCN(CC2CC2)CC3)cc1 [Compound C0126M] | 108.5 | 119.3 | 228.4 | – | – | – | 181.8 | 108.5 | 265.3 | – | – | – | – | – | –
8 | CC(=O)c1ccc(S(=O)(=O)N2CC(CN(C)C)OC23CCN(CC2CC2)CC3)cc1 (stereo not drawn) [Compound C0128M] | 104.5 | 115.2 | 131.8 | – | – | – | 197.8 | 63.9 | 286.0 | – | – | – | – | – | –
9 | COc1ccc(S(=O)(=O)N2CCOC23CCN(C(C)C)CC3)cc1 [Compound C0133M] | 83.2 | 96.6 | 152.4 | – | – | – | 139.4 | 72.4 | 214.8 | – | – | – | – | – | –
10 | Cc1ccc(S(=O)(=O)N2CCOC23CCN(CC2CC2)CC3)cc1 [Compound C0134M] | – | – | – | – | – | – | – | – | – | 150.7 | 53.2 | 224.0 | – | – | –
11 | CCc1ccc(S(=O)(=O)N2CCOC23CCN(CC2CC2)CC3)cc1 [Compound C0135M] | 85.3 | 124.9 | 233.6 | 161.3 | 310.1 | 113.3 | – | – | – | – | – | – | – | – | –
12 | O=C1CN(Cc2ccccc2)C2(CCN(S(=O)(=O)c3cc(Cl)cc(Cl)c3O)CC2)N1 [Compound C0138M] | 86.3 | 90.9 | 131.0 | – | – | – | – | – | – | – | – | – | 126.9 | 183.9 | 51.5
13 | O=C1CN(Cc2ccccc2)C2(CCN(S(=O)(=O)c3cc(Cl)c(O)c(Cl)c3)CC2)N1 [Compound C0139M] | 106.2 | 102.2 | 129.8 | – | – | – | – | – | – | – | – | – | 156.1 | 206.6 | 51.0
14 | O=S(=O)(c1ccc2ccccc2c1)N1CCC2(CC1)OCCN2S(=O)(=O)c1ccc2ccccc2c1 [Compound C0140M] | 85.8 | 106.5 | 211.2 | – | – | – | – | – | – | – | – | – | 126.1 | 215.4 | 83.0
15 | O=S(=O)(c1cccs1)N1CCC2(CC1)OCCN2S(=O)(=O)c1cccs1 [Compound C0141M] | 109.9 | 105.8 | 121.9 | – | – | – | – | – | – | – | – | – | 161.5 | 213.9 | 47.9
16 | COc1ccc(S(=O)(=O)N2CCC3(CC2)NCCC(=O)N3)cc1 [Compound C0142M] | 97.8 | 95.2 | 251.1 | – | – | – | 143.7 | 98.7 | 192.5 | – | – | – | – | – | –
17 | O=S(=O)(c1cccc2cccnc12)N1CCC2(CC1)OCCN2S(=O)(=O)c1cccc2cccnc12 [Compound C0143M] | 47.1 | 59.3 | 94.7 | – | – | – | 81.0 | 86.5 | 193.3 | – | – | – | 81.0 | 193.3 | 86.5
18 | COc1ccc(S(=O)(=O)N2CCC3(NCCO3)C3CCCCC32)cc1 (stereo not drawn) [Compound C0144M-2] | 108.3 | 90.8 | 137.9 | – | – | – | 186.3 | 125.9 | 295.9 | – | – | – | – | – | –
19 | COc1ccc(S(=O)(=O)N2CCC3(OCCN3S(=O)(=O)c3ccc(OC)cc3)C3CCCCC32)cc1 (stereo not drawn) [Compound C0144M] | 108.3 | 90.8 | 137.9 | – | – | – | – | – | – | – | – | – | 186.3 | 295.9 | 125.9
20 | COc1ccc(S(=O)(=O)N2CCOC23CCCNC3)cc1 (stereo not drawn) [Compound C0145M-3] | 112.2 | 88.7 | 95.3 | – | – | – | 193.0 | 87.0 | 289.2 | – | – | – | – | – | –
21 | COc1ccc(S(=O)(=O)N2CCCC3(C2)OCCN3S(=O)(=O)c2ccc(OC)cc2)cc1 (stereo not drawn) [Compound C0145M] | 112.2 | 88.7 | 95.3 | – | – | – | – | – | – | – | – | – | 193.0 | 289.2 | 87.0
22 | O=S(=O)(c1ccccc1Oc1ccccc1)N1CCC2(CC1)NCCO2 [Compound C0149M-2] | 122.0 | 124.8 | 102.3 | – | – | – | 209.8 | 93.4 | 406.7 | – | – | – | – | – | –
